Source: ChEMBL document CHEMBL2069175, “Antiplasmodial activities of 4-aminoquinoline-statine compounds” (Bioorg Med Chem Lett, 2012)
Values belong to the compound of their own block, whether it stands above or below them.

Key:
Plasmepsin II = Plasmepsin II (Plasmodium falciparum, UniProt P46925); assay: Inhibition of Plasmodium falciparum PLM2 using Lys-Glu-Phe-Val-Phe-NPhe-Ala-Leu-Lys as substrate by spectrophotometry
[1] = Inhibition of Plasmodium falciparum PLM4 using Lys-Glu-Phe-Val-Phe-NPhe-Ala-Leu-Lys as substrate by spectrophotometry
[2] = Inhibition of Plasmodium malariae PLM4 using Lys-Glu-Phe-Val-Phe-NPhe-Ala-Leu-Lys as substrate by spectrophotometry
[3] = Inhibition of Plasmodium ovale PLM4 using Lys-Glu-Phe-Val-Phe-NPhe-Ala-Leu-Lys as substrate by spectrophotometry
[4] = Inhibition of Plasmodium vivax PLM4 using Lys-Glu-Phe-Val-Phe-NPhe-Ala-Leu-Lys as substrate by spectrophotometry
Plasmodium falciparum [5] = assay: Antiplasmodial activity against chloroquine-sensitive Plasmodium falciparum D10; assay type: functional, organism-based
Plasmodium falciparum [6] = assay: Antiplasmodial activity against chloroquine-resistant Plasmodium falciparum W2; assay type: functional, organism-based
[7] = Cytotoxicity against human HDF at 100 uM; conditions: HDF cells, read-out: INH
Plasmodium falciparum [8] = assay: microbe, parasite or virus in culture; conditions: D10, 72 h
Description: Antiplasmodial activity against chloroquine-sensitive Plasmodium falciparum D10 after 72 hrs by parasite lactate dehydrogenase assay

Plasmodium falciparum [9] = assay: microbe, parasite or virus in culture; conditions: W2, 72 h
Description: Antiplasmodial activity against chloroquine-resistant Plasmodium falciparum W2 after 72 hrs by parasite lactate dehydrogenase assay

Cathepsin D = Cathepsin D (Homo sapiens, UniProt P07339); assay: Inhibition of human cathepsin D
Chain of Cathepsin D (P07339 65-162 limits assumed): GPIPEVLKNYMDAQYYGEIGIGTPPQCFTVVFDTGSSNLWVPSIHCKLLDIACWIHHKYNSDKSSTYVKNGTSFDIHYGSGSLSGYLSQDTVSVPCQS
Chain of Cathepsin D (P07339 169-412 limits assumed): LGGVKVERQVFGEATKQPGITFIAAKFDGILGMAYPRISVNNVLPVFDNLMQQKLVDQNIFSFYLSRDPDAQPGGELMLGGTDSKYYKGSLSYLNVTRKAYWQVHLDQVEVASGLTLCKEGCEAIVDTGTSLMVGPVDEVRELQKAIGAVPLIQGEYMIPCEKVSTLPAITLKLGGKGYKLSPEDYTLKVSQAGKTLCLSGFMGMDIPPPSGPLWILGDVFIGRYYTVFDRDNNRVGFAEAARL

Chain of Plasmepsin II (P46925 whole entry): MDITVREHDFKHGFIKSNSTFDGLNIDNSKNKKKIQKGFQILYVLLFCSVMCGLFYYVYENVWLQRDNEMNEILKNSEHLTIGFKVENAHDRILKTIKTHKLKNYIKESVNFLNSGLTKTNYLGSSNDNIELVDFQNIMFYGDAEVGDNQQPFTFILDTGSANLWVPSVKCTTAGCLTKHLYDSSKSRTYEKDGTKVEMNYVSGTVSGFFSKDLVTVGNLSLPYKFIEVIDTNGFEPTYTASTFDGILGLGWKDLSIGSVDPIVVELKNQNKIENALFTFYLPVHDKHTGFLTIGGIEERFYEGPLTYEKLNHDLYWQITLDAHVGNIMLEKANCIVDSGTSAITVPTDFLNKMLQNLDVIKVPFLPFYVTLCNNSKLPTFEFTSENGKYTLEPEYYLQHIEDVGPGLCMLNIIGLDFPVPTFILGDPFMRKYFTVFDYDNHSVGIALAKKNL

SMILES: CCCCNC(=O)C[C@H](O)[C@H](CC(C)C)NC(=O)[C@@H](NC(=O)c1ccc(Oc2ccc(C(=O)N[C@@H](CC(C)C)C(=O)N[C@@H](CCCCN)C(=O)NCCCC(C)Nc3cc(OC)cc4cccnc34)cc2)cc1)[C@@H](C)CC (some centres not stated)
Ki (Plasmepsin II; read-out: Ki): 0.4 nM
Ki [1]: 0.5 nM
Ki [2]: 1.2 nM
Ki [3]: 10 nM
Ki [4]: 1.2 nM
IC50 (Plasmodium falciparum [5]): 400 nM
IC50 (Plasmodium falciparum [6]): 400 nM
cytotoxicity at 100 µM [7]: 50%
IC50 (Plasmodium falciparum [8]): 400 nM
IC50 (Plasmodium falciparum [9]): 700 nM

SMILES: CCCCNC(=O)C[C@H](O)[C@H](CC(C)C)NC(=O)[C@@H](NC(=O)c1ccc(Oc2ccc(C(=O)NCCCNc3ccnc4cc(Cl)ccc34)cc2)cc1)[C@@H](C)CC
Ki (Plasmepsin II; read-out: Ki): 2.3 nM
Ki [1]: 5.4 nM
Ki [2]: 0.93 nM
Ki [3]: 11 nM
Ki [4]: 0.7 nM
IC50 (Cathepsin D): 220 nM
IC50 (Plasmodium falciparum [8]): 177 nM
IC50 (Plasmodium falciparum [9]): 78 nM

SMILES: CCCCNC(=O)C[C@H](O)[C@H](CC(C)C)NC(=O)[C@@H](NC(=O)c1ccc(Oc2ccc(C(=O)N[C@@H](C)C(=O)NCCCNc3ccnc4cc(Cl)ccc34)cc2)cc1)[C@@H](C)CC
Ki (Plasmepsin II; read-out: Ki): 3.8 nM
Ki [1]: 8.7 nM
Ki [2]: 2.4 nM
Ki [3]: 8.5 nM
Ki [4]: 0.48 nM
IC50 (Cathepsin D): 540 nM
IC50 (Plasmodium falciparum [8]): 114 nM
IC50 (Plasmodium falciparum [9]): 64 nM

SMILES: CCCCNC(=O)C[C@H](O)[C@H](CC(C)C)NC(=O)[C@@H](NC(=O)c1ccc(Oc2ccc(C(=O)N[C@@H](CC(C)C)C(=O)N[C@@H](C)C(=O)NCCCNc3ccnc4ccccc34)cc2)cc1)[C@@H](C)CC
Ki (Plasmepsin II; read-out: Ki): 2.6 nM
Ki [1]: 6.7 nM
Ki [2]: 0.87 nM
Ki [3]: 8.1 nM
Ki [4]: 0.43 nM
IC50 (Cathepsin D): 300 nM
IC50 (Plasmodium falciparum [8]): 161 nM
IC50 (Plasmodium falciparum [9]): 474 nM

SMILES: CCCCNC(=O)C[C@H](O)[C@H](CC(C)C)NC(=O)[C@@H](NC(=O)c1ccc(Oc2ccc(C(=O)NCc3ccccc3)cc2)cc1)[C@@H](C)CC
Ki (Plasmepsin II; read-out: Ki): 1.3 nM
Ki [1]: 20 nM
Ki [2]: 5.8 nM
Ki [3]: 1.1 nM
Ki [4]: 19 nM
IC50 (Plasmodium falciparum [8]): > 7000 nM
IC50 (Plasmodium falciparum [9]): > 7000 nM

SMILES: CCCCNC(=O)C[C@H](O)[C@H](CC(C)C)NC(=O)[C@@H](NC(=O)c1ccc(Oc2ccc(C(=O)OCc3ccccc3)cc2)cc1)[C@@H](C)CC
Ki (Plasmepsin II; read-out: Ki): 1.9 nM
Ki [1]: 2.6 nM
Ki [2]: 2.1 nM
Ki [3]: 0.34 nM
Ki [4]: 4.7 nM
IC50 (Plasmodium falciparum [8]): 3850 nM
IC50 (Plasmodium falciparum [9]): 4680 nM

SMILES: CC(C)C[C@H](NC(=O)OCc1ccccc1)C(=O)N[C@@H](C)C(=O)NCCCNc1ccnc2cc(Cl)ccc12
Ki (Plasmepsin II): Not Active
IC50 (Plasmodium falciparum [8]): 197 nM
IC50 (Plasmodium falciparum [9]): 1680 nM

Ki (Plasmepsin II): Not Active
SMILES: CCN(CC)CCCC(C)Nc1ccnc2cc(Cl)ccc12 (configuration not stated) [CHLOROQUINE]
